These results are taken from US20040053972A1, “Medicinal compositions having improved absorbability” (priority 2000, published 2004).

The subject of series [1] is human breast cancer cell line BT-474. Briefly: In vitro inhibition of growth of breast cancer cell BT-474. The note with it: 120 h, BT-474 cells, heregulin, cultured for 5 days, SRB staining. The class given is cell-based. The protocol: In vitro Inhibition of Growth of Breast Cancer Cell BT-474
In each well of a 96-well microtiter plate, 100 μl (containing 1,000 cells) of a cell suspension of human breast cancer cell line BT-474 was seeded and incubated at 37° C. in a 5% carbon dioxide gas incubator. On the next day, 100 μl of the 2-fold serial dilution of a solution of each test compound prepared by using 250 μl of a heregulin solution, which was adjusted so as to be the final concentration of 0.8 μg/mL, was added to each well and cultured for 5 days. The solution containing the test compound was removed and the cells were washed and fixed with a 50% trichloroacetic acid solution. To the cells was added a 0.4% (W/V) solution of pigment SRB (dissolved in 1% acetic acid) to fix as well as stain the cell protein (Skehan P. et al., Journal of the National Cancer Institute Vol. 82, pp. 1107-1112, 1990). The pigment solution was removed and the remainder was washed with a 1% acetic acid solution. Then, 100 μl of an extracting solution (10 mM Tris buffer) was added thereto to extract the pigment. The optical density of the extract at the wavelength of 550 nm was measured to determine the amount of the cells in terms of the amount of the protein. The proportion of the amount of remaining protein of each treated group was determined by taking the amount of protein of the control to which no solution of a test compound was added as 100% to calculate the value of the concentration of the compound required for inhibiting the remaining cells by 50% of that of the control (IC50)
On the technique in general: Sulforhodamine B stains cellular protein and so reports cell mass.

The target in series [2] is T1, HER2 (Homo sapiens, UniProt P04626).
T1 construct: amount of phosphorylation of HER2 tyrosine of the cells; endogenous in cells; host or cells: MCF-7 human breast cancer cell line
Briefly: Inhibition of phosphorylation of receptor tyrosine (HER2) in human breast cancer cells MCF-7. It is filed as cell-based. The note with it: MCF-7 cells, test compound 2 hours, then heregulin 0.8 μg/mL for 5 minutes. The method, then: Inhibition of Phosphorylation of Receptor Tyrosine in Human Breast Cancer Cells
In each well of a 24-well plate, 500 μl of the cell suspension ([…]) of human breast cancer cell line MCF-7 was seeded and incubated at 37° C. in a 5% carbon dioxide gas incubator. On the next day, 250 μl of a 4-fold serial dilution of a solution of a test compound was added to each well and, 2 hours later, 250 μl of a heregulin solution, which was adjusted so as to be the final concentration of 0.8 μg/mL, was added thereto. After 5 minutes, an extracting solution was added thereto to terminate the reaction as well as to extract a protein. The protein was fractionated by protein electrophoresis and the protein in the electrophoretic gel was transferred to a nylon filter. The filter was reacted with a phosphorylated tyrosine-specific antibody. The reaction product was fluorescence-labeled and was exposed to a photo-film. The intensity of the exposure on the photo-film was quantitated by an image-analyzing apparatus.

Series [3] deals with Human breast cancer cell line BT-474. Briefly: In vivo breast cancer inhibiting effect (BT-474 implanted in nude mice). The conditions noted are these: nude mice with BT-474 tumors, orally twice daily 30 mg/kg body weight for 10 days. The protocol:
In Vivo Breast Cancer Inhibiting Effect
Human breast cancer cell line BT-474 (5,000,000 cells) were suspended in a gel-matrix solution. The suspension was subcutaneously implanted in the breast of 6-week-old female Balb/C strain nude mice (Friedman R. et al., Proceedings of the National Academy of Sciences of the U.S.A. Vol. 87, pp. 6698-6702, 1990). At the time of the implantation and seven days after the implantation, an estradiol dipropionate solution (5 mg/mL) was intramuscularly administered to the hind leg for the purpose of enhancing a take ratio of tumors. Fourteen days after the implantation, the diameters of tumors were determined. For the experiment were used 5 mice per group with similar tumor size. Each of compounds (4, 6, 14, 17, 19, 20, 23, 24 and 26) of the present invention was suspended in a 5% gum arabic solution (physiological saline) and administered orally twice daily in dose of 30 mg/kg body weight for 10 days. On the day when the administration was terminated, the diameters of tumors were measured. Tumor volume was calculated by the following equation.
Volume of tumor=longest diameter×shortest diameter×shortest diameter×½
The growth rate of tumors was calculated as the proportion of the value obtained by subtracting the initial volume from the final volume in the group to which the drug was administered, to the value obtained by subtracting the initial volume from the final volume in the control group to which a gum arabic solution was administered.

T1 sequence (P04626 23-1255): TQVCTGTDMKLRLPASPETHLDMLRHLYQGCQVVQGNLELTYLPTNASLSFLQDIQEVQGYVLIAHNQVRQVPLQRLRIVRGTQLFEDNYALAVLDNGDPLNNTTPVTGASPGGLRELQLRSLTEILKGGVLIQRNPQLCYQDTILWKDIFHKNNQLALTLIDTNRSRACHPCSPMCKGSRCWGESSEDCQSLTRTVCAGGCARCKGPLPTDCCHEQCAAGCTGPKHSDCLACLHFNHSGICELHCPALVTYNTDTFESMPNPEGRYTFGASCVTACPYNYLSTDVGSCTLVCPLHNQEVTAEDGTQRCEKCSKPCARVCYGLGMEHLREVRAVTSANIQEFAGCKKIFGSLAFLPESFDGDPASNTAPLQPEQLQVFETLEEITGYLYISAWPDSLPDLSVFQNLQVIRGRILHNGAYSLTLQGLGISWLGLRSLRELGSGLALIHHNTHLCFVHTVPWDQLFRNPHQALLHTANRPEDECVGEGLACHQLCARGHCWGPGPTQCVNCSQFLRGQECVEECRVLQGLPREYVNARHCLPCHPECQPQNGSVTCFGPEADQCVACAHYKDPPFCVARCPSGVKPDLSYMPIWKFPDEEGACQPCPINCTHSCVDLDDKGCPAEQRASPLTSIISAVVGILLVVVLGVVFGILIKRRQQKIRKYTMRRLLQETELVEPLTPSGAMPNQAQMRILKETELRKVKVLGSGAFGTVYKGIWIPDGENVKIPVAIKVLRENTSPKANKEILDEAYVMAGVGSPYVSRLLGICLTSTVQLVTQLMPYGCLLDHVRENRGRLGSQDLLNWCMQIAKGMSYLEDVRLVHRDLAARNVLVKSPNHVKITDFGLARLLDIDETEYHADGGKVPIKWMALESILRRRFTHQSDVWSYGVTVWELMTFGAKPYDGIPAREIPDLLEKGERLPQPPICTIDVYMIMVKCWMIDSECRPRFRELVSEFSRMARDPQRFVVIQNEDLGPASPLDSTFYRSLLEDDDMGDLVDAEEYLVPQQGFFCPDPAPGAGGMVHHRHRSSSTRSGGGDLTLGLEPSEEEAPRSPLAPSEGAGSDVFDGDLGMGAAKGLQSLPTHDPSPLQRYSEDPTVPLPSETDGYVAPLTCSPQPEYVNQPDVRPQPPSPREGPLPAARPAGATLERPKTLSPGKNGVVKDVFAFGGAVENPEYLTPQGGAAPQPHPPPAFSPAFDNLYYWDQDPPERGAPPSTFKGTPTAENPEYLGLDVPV

Broadly, the IC50 is the concentration that gives 50% inhibition. What is called melting point is the temperature, or range, at which the solid turns liquid. In the case of `Fc1ccc(/C=C/c2nc(COc3ccc(CCCCn4ccnn4)cc3)co2)cc1` [Reference Example B2, 1-{4-[4-({2-[(E)-2-(4-Fluorophenyl)ethenyl]-1,3-oxazol-4-yl}methoxy)phenyl]butyl}-1H-1,2,3-triazole], the melting point lay within 124 to 125 °C. In addition, the IC50 in series [1] was less than 0.05 µM. It took 1.9 µM to reach half-maximal inhibition in series [2] (IC50).

The compound `FC(F)(F)c1ccc(/C=C/c2nc(COc3ccc(CCCn4ccnn4)cc3)co2)cc1` [B5, 1-(3-{4-[(2-{(E)-2-[4-(Trifluoromethyl)phenyl]ethenyl}-1,3-oxazol-4-yl)methoxy]phenyl}propyl)-1H-1,2,3-triazole] displayed a melting point of 157 to 158 °C. The compound also registered an IC50 in series [1] of less than 0.05 µM.

For `Fc1ccc(/C=C/c2nc(COc3cccc(CCCn4ccnn4)c3)co2)cc1` [B3, 1-{3-[3-({2-[(E)-2-(4-Fluorophenyl)ethenyl]-1,3-oxazol-4-yl}methoxy)phenyl]propyl}-1H-1,2,3-triazole], the melting point lay within 105 to 106 °C. The compound further gave an IC50 in series [1] of less than 0.05 µM. This compound yielded an IC50 in series [2] of 0.18 µM.

On to `Cc1cccc(/C=C/c2nc(COc3ccc(CCCCn4ccnc4CC(O)CO)cc3)co2)c1` (stereo not shown) [B22, 3-(1-{4-[4-({2-[(E)-2-(3-Methylphenyl)ethenyl]-1,3-oxazol-4-yl}methoxy)phenyl]butyl}-1H-imidazol-2-yl)-1,2-propanediol], for which the melting point fell in the range of 102 to 104 °C. Also, the 50% inhibitory concentration (IC50) in series [1] is less than 0.05 µM. It took 1.9 µM to reach half-maximal inhibition in series [2] (IC50).

In turn, `Cc1ccccc1/C=C/c1nc(COc2ccc(CCCCn3ccnc3CCO)cc2)co1` [B12, 2-[1-[4-[4-[[2-[(E)-2-(2-Methylphenyl)ethenyl]-1,3-oxazol-4-yl]methoxy]phenyl]butyl]-1H-imidazol-2-yl]-1-ethanol] registered a melting point of 91 to 93 °C.

`OCC(O)Cc1nccn1CCCCc1ccc(OCc2coc(/C=C/c3c(F)cccc3F)n2)cc1` (stereo not shown) [B28, 3-[1-[4-[4-[[2-[(E)-2-(2,6-Difluorophenyl)ethenyl]-1,3-oxazol-4-yl]methoxy]phenyl]butyl]-1H-imidazol-2-yl]-1,2-propanediol] displayed a melting point of 123 to 125 °C.

The compound `Cc1cccc(/C=C/c2nc(COc3ccc(CCCCn4ccnc4CCO)cc3)co2)c1` [B11, 2-[1-[4-[4-[[2-[(E)-2-(3-Methylphenyl)ethenyl]-1,3-oxazol-4-yl]methoxy]phenyl]butyl]-1H-imidazol-2-yl]-1-ethanol] returned a melting point of 109 to 111 °C. Moreover, in series [1], the IC50 is less than 0.05 µM. This compound also gave a half-maximal inhibitory concentration (IC50) in series [2] of 1.1 µM.

Compound `OCCc1nccn1CCCCc1ccc(OCc2coc(/C=C/c3ccc(F)cc3F)n2)cc1` [Reference Example B19, 2-[1-[4-[4-[[2-[(E)-2-(2,4-Difluorophenyl)ethenyl]-1,3-oxazol-4-yl]methoxy]phenyl]butyl]-1H-imidazol-2-yl]-1-ethanol] had a melting point of 93 to 95 °C. Also, half-maximal inhibition in series [1] (IC50) required 0.017 µM.

The compound `OCCc1nccn1CCCCc1ccc(OCc2coc(/C=C/c3ccc(Cl)cc3)n2)cc1` [B15, 2-[1-[4-[4-[[2-[(E)-2-(4-Chlorophenyl)ethenyl]-1,3-oxazol-4-yl]methoxy]phenyl]butyl]-1H-imidazol-2-yl]-1-ethanol] displayed a melting point of 127 to 128 °C.

Compound `OCC(O)Cc1nccn1CCCCc1ccc(OCc2coc(/C=C/c3ccc(C(F)(F)F)cc3)n2)cc1` (stereo not shown) [B24, 3-[1-(4-{4-[(2-{(E)-2-[4-(Trifluoromethyl)phenyl]ethenyl}-1,3-oxazol-4-yl)methoxy]phenyl}butyl)-1H-imidazol-2-yl]-1,2-propanediol] gave a melting point of 142 to 143 °C. The “Inhibition ratio (%)” value in series [3] was found to be 28%.

On to `OCC(O)Cc1nccn1CCCCc1ccc(OCc2coc(/C=C/c3ccc(F)cc3)n2)cc1` (stereo not shown) [B23, 3-(1-{4-[4-({2-[(E)-2-(4-Fluorophenyl)ethenyl]-1,3-oxazol-4-yl}methoxy)phenyl]butyl}-1H-imidazol-2-yl)-1,2-propanediol], for which the melting point was 114 to 116 °C. In series [3], the “Inhibition ratio (%)” value is recorded as 27%.

For the compound `Fc1ccc(/C=C/c2nc(COc3cccc(CCCn4ccnn4)c3)co2)c(F)c1` [B8, 1-{3-[3-({2-[(E)-2-(2,4-Difluorophenyl)ethenyl]-1,3-oxazol-4-yl}methoxy)phenyl]propyl}-1H-1,2,3-triazole], the melting point is 89 to 90 °C.

Turning to `CCc1ccc(/C=C/c2nc(COc3ccc(CCCCn4ccnc4CCO)cc3)co2)cc1` [B13, 2-[1-[4-[4-[[2-[(E)-2-(4-Ethylphenyl)ethenyl]-1,3-oxazol-4-yl]methoxy]phenyl]butyl]-1H-imidazol-2-yl]-1-ethanol], the melting point is 94 to 95 °C.

Consider `OCC(O)Cc1nccn1CCCc1cccc(OCc2coc(/C=C/c3ccc(C(F)(F)F)cc3)n2)c1` (stereo not shown) [B25, 3-[1-(3-{3-[(2-{(E)-2-[4-(Trifluoromethyl)phenyl]ethenyl}-1,3-oxazol-4-yl)methoxy]phenyl}propyl)-1H-imidazol-2-yl]-1,2-propanediol], for which the melting point is 102 to 104 °C.

`OCC(O)Cc1nccn1CCCc1cccc(OCc2coc(/C=C/c3ccc(F)cc3F)n2)c1` (stereo not shown) [B27, 3-(1-{3-[3-({2-[(E)-2-(2,4-Difluorophenyl)ethenyl]-1,3-oxazol-4-yl}methoxy)phenyl]propyl}-1H-imidazol-2-yl)-1,2-propanediol]: the melting point lay in the range of 92 to 94 °C.

In the case of `OCCc1nccn1CCCCc1ccc(OCc2coc(/C=C/c3ccc(F)cc3)n2)cc1` [B14, 2-(1-{4-[4-({2-[(E)-2-(4-Fluorophenyl)ethenyl]-1,3-oxazol-4-yl}methoxy)phenyl]butyl}-1H-imidazol-2-yl)-1-ethanol], the melting point was in the range of 130 to 132 °C.

Consider `OCC(O)Cc1nccn1CCCCc1ccc(OCc2coc(/C=C/c3ccc(F)cc3F)n2)cc1` (stereo not shown) [Reference Example B26, 3-(1-{4-[4-({2-[(E)-2-(2,4-Difluorophenyl)ethenyl]-1,3-oxazol-4-yl}methoxy)phenyl]butyl}-1H-imidazol-2-yl)-1,2-propanediol], for which, in series [3], the “Inhibition ratio (%)” value is recorded as 15%. Moreover, the IC50 was less than 0.05 µM in series [1] and 0.92 µM in series [2].

Regarding `OCCc1nccn1CCCc1ccc(OCc2coc(/C=C/c3ccc(F)cc3F)n2)cc1` [B20, 2-[1-[3-[4-[[2-[(E)-2-(2,4-Difluorophenyl)ethenyl]-1,3-oxazol-4-yl]methoxy]phenyl]propyl]-1H-imidazol-2-yl]-1-ethanol], the melting point lay in the range of 94 to 96 °C. The compound also returned a half-maximal inhibitory concentration (IC50) in series [1] of less than 0.05 µM. Further, it took 1.5 µM to reach half-maximal inhibition in series [2] (IC50).

`Fc1ccc(/C=C/c2nc(COc3ccc(CCCCn4ccnn4)cc3)co2)c(F)c1` [B7, 1-{4-[4-({2-[(E)-2-(2,4-Difluorophenyl)ethenyl]-1,3-oxazol-4-yl}methoxy)phenyl]butyl}-1H-1,2,3-triazole] showed a melting point of 115 to 117 °C.

Consider `OCCc1nccn1CCCCc1ccc(OCc2coc(/C=C/c3ccc(Br)cc3)n2)cc1` [B16, 2-[1-[4-[4-[[2-[(E)-2-(4-Bromophenyl)ethenyl]-1,3-oxazol-4-yl]methoxy]phenyl]butyl]-1H-imidazol-2-yl]-1-ethanol], for which the melting point is 149 to 150 °C.

As to `Cc1ccc(/C=C/c2nc(COc3ccc(CCCCn4ccnc4CCO)cc3)co2)cc1` [B10, 2-[1-[4-[4-[[2-[(E)-2-(4-Methylphenyl)ethenyl]-1,3-oxazol-4-yl]methoxy]phenyl]butyl]-1H-imidazol-2-yl]-1-ethanol], the melting point fell in the range of 108 to 109 °C.
